SMILES strings stand for the structures. Structures can show the parent of a compound that is named as a salt.

The target of the test is T1, DYRK1/DYRK1A (Homo sapiens, UniProt Q13627).
T1 construct: purchased Reaction Biology Corp
In words: DYRK1/DYRK1A IC50 assay (Reaction Biology Corp.). The following applies: DYRK1/DYRK1A assay from Reaction Biology Corp. It is filed as biochemical.
For `O=c1[nH]c2ccc(-c3cncc(CNc4ccccc4F)c3)cc2[nH]1` [Compound 52a, 5-(5-(((2-Fluorophenyl)amino)methyl)pyridin-3-yl)-1H-benzo[d]imidazol-2(3H)-one], the IC50 stood at 3.67 nM. With `O=c1[nH]c2ccc(-c3cncc(NCc4ccccc4)c3)cc2n1-c1ccccn1` [Compound 61f, 6-(5-(Benzylamino)pyridin-3-yl)-1-(pyridin-2-yl)-1H-benzo[d]imidazol-2(3H)-one] the figure was 0.52 nM; with `COc1ccccc1NCc1cncc(-c2ccc3[nH]c(=O)[nH]c3c2)c1` [Compound 52g, 5-(5-(((2-Methoxyphenyl)amino)methyl)pyridin-3-yl)-1H-benzo[d]imidazol-2(3H)-one], 2.72 nM; with `COc1ccc(NCc2cncc(-c3ccc4[nH]c(=O)[nH]c4c3)c2)cc1` [Compound 52i, 5-(5-(((4-Methoxyphenyl)amino)methyl)pyridin-3-yl)-1H-benzo[d]imidazol-2(3H)-one], 2.2 nM. With `CC(C)(C)OC(=O)NCCOc1cccc(-n2c(=O)[nH]c3ccc(-c4cncc(NCc5ccccc5)c4)cc32)c1` [Compound 611, tert-Butyl (2-(3-(6-(5-(benzylamino)pyridin-3-yl)-2-oxo-2,3-dihydro-1H-benzo[d]imidazol-1-yl)phenoxy)ethyl)carbamate] the figure was 103 nM; with `O=c1[nH]c2ccc(-c3cncc(CNc4ccc(F)cc4)c3)cc2[nH]1` [Compound 52c, 5-(5-(((4-Fluorophenyl)amino)methyl)pyridin-3-yl)-1H-benzo[d]imidazol-2(3H)-one], 6.11 nM. With `NCCOCCOc1cccc(-n2c(=O)[nH]c3ccc(-c4cncc(NCc5ccccc5)c4)cc32)c1` [Compound 61o, 1-(3-(2-(2-Aminoethoxy)ethoxy)phenyl)-6-(5-(benzylamino)pyridin-3-yl)-1H-benzo[d]imidazol-2(3H)-one hydrochloride] the figure was 3.9 nM. In turn, `COc1cccc(NCc2cncc(-c3ccc4[nH]c(=O)[nH]c4c3)c2)c1` [Compound 52h, 5-(5-(((3-Methoxyphenyl)amino)methyl)pyridin-3-yl)-1H-benzo[d]imidazol-2(3H)-one] registered an IC50 of 2.26 nM. With `O=c1[nH]c2ccc(-c3cncc(CNc4cccc(F)c4)c3)cc2[nH]1` [Compound 52b, 5-(5-(((3-Fluorophenyl)amino)methyl)pyridin-3-yl)-1H-benzo[d]imidazol-2(3H)-one] the figure was 1.31 nM; with `O=c1[nH]c2ccc(-c3cncc(NCc4ncc[nH]4)c3)cc2[nH]1` [Compound 49c, 5-(5-(((1H-Imidazol-2-yl)methyl)amino)pyridin-3-yl)-1H-benzo[d]imidazol-2(3H)-one], 4.91 nM; with `CC(C)(C)OC(=O)NCCOCCOc1cccc(-n2c(=O)[nH]c3ccc(-c4cncc(NCc5ccccc5)c4)cc32)c1` [Compound 61m, tert-Butyl (2-(2-(3-(6-(5-(benzylamino)pyridin-3-yl)-2-oxo-2,3-dihydro-1H-benzo[d]imidazol-1-yl)phenoxy)ethoxy)ethyl)carbamate], 42.8 nM.

The molecule `O=c1[nH]c2ccc(-c3cncc(CNc4ccccc4Cl)c3)cc2[nH]1` [Compound 52d, 5-(5-(((2-Chlorophenyl)amino)methyl)pyridin-3-yl)-1H-benzo[d]imidazol-2(3H)-one] registered an IC50 of 5.05 nM. Compared with the last molecule, the IC50 is about 8.5-fold lower. With `COCCOc1ccc(-n2c(=O)[nH]c3ccc(-c4cncc(NCc5ccccc5)c4)cc32)cc1` [Compound 61k, 6-(5-(Benzylamino)pyridin-3-yl)-1-(4-(2-methoxyethoxy)phenyl)-1H-benzo[d]imidazol-2(3H)-one] the figure was 38 nM; with `COCCOc1cccc(-n2c(=O)[nH]c3ccc(-c4cncc(NCc5ccccc5)c4)cc32)c1` [Compound 61j, 6-(5-(Benzylamino)pyridin-3-yl)-1-(3-(2-methoxyethoxy)phenyl)-1H-benzo[d]imidazol-2(3H)-one], 3.47 nM. With `C[C@H](Nc1cncc(-c2ccc3[nH]c(=O)n(C)c3c2)c1)c1ccccc1` [Compound 69c] the figure was 0.286 nM. With `O=c1[nH]c2ccc(-c3cnccc3NCc3ccccc3)cc2[nH]1` [Compound 74c, 5-(4-(Benzylamino)pyridin-3-yl)-1H-benzo[d]imidazol-2(3H)-one] the figure was 1690 nM.

Molecule `O=c1[nH]c2ccc(-c3cncc(NCc4cc[nH]n4)c3)cc2[nH]1` [Compound 49e, 5-(5-(((1H-Pyrazol-3-yl)methyl)amino)pyridin-3-yl)-1H-benzo[d]imidazol-2(3H)-one] displayed an IC50 of 3.27 nM. With `CCn1c(=O)[nH]c2ccc(-c3cncc(NCc4ccccc4)c3)cc21` [Compound 61a, 6-(5-(Benzylamino)pyridin-3-yl)-1-ethyl-1H-benzo[d]imidazol-2(3H)-one] the figure was 1.41 nM. With `NCCOc1cccc(-n2c(=O)[nH]c3ccc(-c4cncc(NCc5ccccc5)c4)cc32)c1` [Compound 61n, 1-(3-(2-Aminoethoxy)phenyl)-6-(5-(benzylamino)pyridin-3-yl)-1H-benzo[d]imidazol-2(3H)-one hydrochloride] the figure was 7.12 nM; with `O=c1[nH]c2ccc(-c3ccncc3NCc3ccccc3)cc2[nH]1` [Compound 74b, 5-(3-(Benzylamino)pyridin-4-yl)-1H-benzo[d]imidazol-2(3H)-one], 8580 nM. With `O=c1[nH]c2ccc(-c3cncc(NCc4ccccc4)c3)cc2n1C1CCCC1` [Compound 61d, 6-(5-(Benzylamino)pyridin-3-yl)-1-cyclopentyl-1H-benzo[d]imidazol-2(3H)-one] the figure was 24 nM.

Molecule `O=c1[nH]c2ccc(-c3cncc(NCc4ncco4)c3)cc2[nH]1` [Compound 49f, 5-(5-((Oxazol-2-ylmethyl)amino)pyridin-3-yl)-1H-benzo[d]imidazol-2(3H)-one] displayed an IC50 of 4.03 nM.

In turn, `O=c1[nH]c2ccc(-c3cncc(NCc4cccs4)c3)cc2[nH]1` [Compound 49b, 5-(5-((Thiophen-2-ylmethyl)amino)pyridin-3-yl)-1H-benzo[d]imidazol-2(3H)-one] yielded an IC50 of 0.48 nM. With `O=c1[nH]c2ccc(-c3cncc(NCc4ccco4)c3)cc2[nH]1` [Compound 49a, 5-(5-((Furan-2-ylmethyl)amino)pyridin-3-yl)-1H-benzo[d]imidazol-2(3H)-one] the figure was 1.74 nM. With `O=c1[nH]c2ccc(-c3cncc(NCc4ccccc4)c3)cc2n1-c1ccccc1` [Compound 61e, 6-(5-(Benzylamino)pyridin-3-yl)-1-phenyl-1H-benzo[d]imidazol-2(3H)-one] the figure was 3.8 nM; with `Cn1c(=O)[nH]c2ccc(-c3cc(NCc4ccccc4)c[n+]([O-])c3)cc21` [Compound 69a, 3-(Benzylamino)-5-(3-methyl-2-oxo-2,3-dihydro-1H-benzo[d]imidazol-5-yl)pyridine 1-oxide], 99.9 nM. With `O=c1[nH]c2ccc(-c3cncc(NCc4ccccc4)c3)cc2n1C1CC1` [Compound 61c, 6-(5-(Benzylamino)pyridin-3-yl)-1-cyclopropyl-1H-benzo[d]imidazol-2(3H)-one] the figure was 3.25 nM; with `Cc1ncc(NCc2ccccc2)cc1-c1ccc2[nH]c(=O)[nH]c2c1` [Compound 74a, 5-(5-(Benzylamino)-2-methylpyridin-3-yl)-1H-benzo[d]imidazol-2(3H)-one], 2100 nM.

Source of the values: patent US20220162182A1, “KINASE INHIBITOR COMPOUNDS AND COMPOSITIONS AND METHODS OF USE” (ICAHN SCHOOL OF MEDICINE AT MOUNT SINAI, priority 2018, published 2022).
